Data taken from ChEMBL document CHEMBL3585338, “2-Hydroxy-3,4-naphthochalcone (2H-NC) inhibits TNFα-induced tumor invasion through the downregulation of NF-κB-mediated MMP-9 gene expression” (Bioorg Med Chem Lett, 2014).
Calls of active or inactive are those of the source.

Columns and labels:
Type in all cases: cell-based
[1] = molecular target: Inhibitor of NF-kappa-B kinase alpha/beta (Homo sapiens) (UniProt O14920+O15111); experiment: Inhibition of TNF-alpha-induced IKKalpha/beta phosphorylation at Ser176/180 in human MDA-MB-231 cells after 20 mins by immunoblot analysis
[2] = molecular target: Transcription factor p65 (Homo sapiens) (UniProt Q04206); experiment: Inhibition of TNF-alpha-induced Rel-A phosphorylation at Ser536 in human MDA-MB-231 cells after 60 mins by immunoblot analysis
Transcription factor p65 (Homo sapiens), sequence (Q04206 whole entry): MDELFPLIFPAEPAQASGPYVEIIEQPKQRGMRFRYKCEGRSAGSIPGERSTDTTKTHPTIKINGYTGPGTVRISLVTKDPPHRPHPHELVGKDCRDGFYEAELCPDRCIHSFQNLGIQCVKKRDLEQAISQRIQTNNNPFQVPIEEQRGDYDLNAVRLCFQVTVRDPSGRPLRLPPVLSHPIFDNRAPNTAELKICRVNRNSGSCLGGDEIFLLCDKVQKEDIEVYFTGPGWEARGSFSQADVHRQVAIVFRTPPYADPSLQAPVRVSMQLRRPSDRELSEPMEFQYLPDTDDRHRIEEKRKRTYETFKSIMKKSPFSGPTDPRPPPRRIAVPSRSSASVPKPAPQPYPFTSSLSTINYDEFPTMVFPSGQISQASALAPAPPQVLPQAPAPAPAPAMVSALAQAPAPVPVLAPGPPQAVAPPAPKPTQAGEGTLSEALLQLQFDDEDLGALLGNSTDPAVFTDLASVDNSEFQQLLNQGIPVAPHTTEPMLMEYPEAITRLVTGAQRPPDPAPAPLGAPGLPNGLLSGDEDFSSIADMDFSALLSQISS

[3] = molecular target: Transcription factor p65 (Homo sapiens) (UniProt Q04206); experiment: Inhibition of TNF-alpha-induced Rel-A nuclear translocation in human MDA-MB-231 cells assessed as decrease in Rel-A phoshorylation at Ser536 at 20 uM pretreated for 30 mins prior to TNF-alpha stimulation measured after 60 mins by immunofluorescence microscopic analysis

Measured: inhibition

O=C(/C=C/c1ccccc1)c1ccc2ccccc2c1O
active: [1] Dose-dependent effect | [2] Dose-dependent effect | [3]
